Experimental data from PMC12528448, “Resistance to CDK7 inhibitors directed by acquired mutation of a conserved residue in cancer cells” (The EMBO Journal, 2025).
Several values for one entry are separate records, joined by “and”; a condition that tells them apart may be missing. Equal entries are not always repeated.

Key:
Type in all cases: cell-based, human
[1] = tested on: 22Rv1 cells; experiment: Growth assay (SRB), 22Rv1
Description: (§1) To determine the IC50 of drug treatments on growth, cells were seeded in 96-well culture plates. Two days after seeding, the cells were treated with increasing concentrations of drugs and incubated for 4 days. Cell number was determined using the SRB assay (Skehan et al, [1990]), and IC50 values were calculated using non-linear regression curve fitting in GraphPad Prism v10. For all other growth experiments, cells were seeded into 96-well plates, and appropriate drugs were added 2 days after seeding. Cells were then incubated in an IncuCyte Zoom live-cell imager, with cell confluency measured every 6 h. Cell doubling times were determined by non-linear curve fitting (exponential growth equation) in GraphPad Prism v10.

[2] = tested on: 22Rv1-SamR cells; experiment: Growth assay (SRB), Samuraciclib-resistant 22Rv1; conditions: for % Growth: 22Rv1 SamR, 4 days, biological reps
Description: as §1

[3] = tested on: MCF7-CDK7-D97N cells; experiment: Growth assay (SRB), MCF7 CDK7-D97N knock-in; conditions: for % Growth: MCF7 CDK7 D99N, biological reps
Description: as §1
(§2) Alt-R^TM S.p. Cas9 nuclease V3, Alt-R CRISPR-Cas9 crRNA, TracrRNA and the donor templates were obtained from Integrated DNA Technologies. […] Cells were treated with 0.7 µM of Alt-R HDR Enhancer V2 to improve HRD efficiency. Sequences of the CRISPRs in the crRNA and the donor templates are shown in the Reagents and tools table. Donor templates were designed to include non-coding substitutions to aid genome DNA PCR for identifying knock-in events and to facilitate cloning; these substitutions are noted in the Reagents and tools table.

[4] = tested on: LNCaP cells; experiment: Growth assay (SRB), LNCaP
Description: as §1

[5] = tested on: LNCaP-CDK7-D97N cells; experiment: Growth assay (SRB), LNCaP CDK7-D97N knock-in; conditions: LNCaP CDK7 D99N
Description: as §1, §2

`CC(C)c1cnn2c(NCc3ccccc3-n3cccn3)nc(OC3CCCNC3)nc12` (centres unmarked) [LDC4297] was tested, and the “% Growth” value ([1]; 22Rv1, Log10 Conc. (nM) 0.09) was 67.07% and 96.13%, the “% Growth” value ([1]; 22Rv1, Log10 Conc. (nM) 0.69) was 66.51% and 88.13% and the “% Growth” value ([1]; 22Rv1, Log10 Conc. (nM) 1.29) was 42.25% and 51.76%. The “% Growth” value ([1]; 22Rv1, Log10 Conc. (nM) 1.89) was 9.89% and 17.57%, the “% Growth” value ([1]; 22Rv1, Log10 Conc. (nM) 2.49) was 11.47% and 9.07% and the “% Growth” value ([1]; 22Rv1, Log10 Conc. (nM) 3.10) was 2.69% and 4.03%. For the same molecule, the “% Growth” value ([1]; 22Rv1, Log10 Conc. (nM) 3.70) was -4.63% and -0.97%, the “% Growth” value ([1]; 22Rv1, Log10 Conc. (nM) 4.30) was -12.52% and -9.59% and the “% Growth” value ([1]; 22Rv1, Log10 Conc. (nM) -0.52) was 95.29% and 95.79%. The “% Growth” value ([1]; 22Rv1, Log10 Conc. (nM) 0.09, 4 days, biological reps) was 97.43% and 97.15%, the “% Growth” value ([1]; 22Rv1, Log10 Conc. (nM) 0.69, 4 days, biological reps) was 91.35% and 89.50% and the “% Growth” value ([1]; 22Rv1, Log10 Conc. (nM) 1.29, 4 days, biological reps) was 69.89% and 67.14%. For the same molecule, the “% Growth” value ([1]; 22Rv1, Log10 Conc. (nM) 1.89, 4 days, biological reps) was 34.11% and 32.16%, the “% Growth” value ([1]; 22Rv1, Log10 Conc. (nM) 2.49, 4 days, biological reps) was 25.80% and 22.21% and the “% Growth” value ([1]; 22Rv1, Log10 Conc. (nM) 3.10, 4 days, biological reps) was 19.07% and 18.11%. For the same molecule, the “% Growth” value ([1]; 22Rv1, Log10 Conc. (nM) 3.70, 4 days, biological reps) was 12.19% and 10.17%, the “% Growth” value ([1]; 22Rv1, Log10 Conc. (nM) 4.30, 4 days, biological reps) was -1.74% and -5.36% and the “% Growth” value ([1]; 22Rv1, Log10 Conc. (nM) -0.52, 4 days, biological reps) was 96.00% and 93.75%. For the same molecule, the “Resistance (Fold), fold increase in IC50 of 22Rv1-SamR relative to 22Rv1” value ([2]; 22Rv1-SamR vs 22Rv1) was 45 fold, the “% Growth” value ([2]; Log10 Conc. (nM) 0.09) was 97.61% and 104.31% and the “% Growth” value ([2]; Log10 Conc. (nM) 0.69) was 95.33% and 95.56%. For the same molecule, the “% Growth” value ([2]; Log10 Conc. (nM) 1.29) was 91.02% and 93.49%, the “% Growth” value ([2]; Log10 Conc. (nM) 1.89) was 85.93% and 89.36% and the “% Growth” value ([2]; Log10 Conc. (nM) 2.49) was 74.46% and 80.17%. The “% Growth” value ([2]; Log10 Conc. (nM) 3.10) was 45.54% and 51.37%, the “% Growth” value ([2]; Log10 Conc. (nM) 3.70) was 16.52% and 21.74% and the “% Growth” value ([2]; Log10 Conc. (nM) 4.30) was -6.89% and -7.33%. For the same molecule, the “% Growth” value ([2]; Log10 Conc. (nM) -0.52) was 95.69% and 97.10%, the “Resistance (Fold)” value ([3]; MCF7-CDK7-D97N vs MCF7 WT) was 38.8 fold and the IC50 ([3]; MCF7-CDK7-D97N, 4 days, SRB) was 284 nM. For the same molecule, the “% Growth” value ([3]; Log10 Conc. (nM) 0.09, 4 days) was 97.54% and 102.97% and 111.53%, the “% Growth” value ([3]; Log10 Conc. (nM) 0.69, 4 days) was 89.88% and 95.95% and 106.23% and the “% Growth” value ([3]; Log10 Conc. (nM) 1.29, 4 days) was 86.58% and 89.18% and 107.98%. The “% Growth” value ([3]; Log10 Conc. (nM) 1.89, 4 days) was 78.14% and 75.55% and 98.88%, the “% Growth” value ([3]; Log10 Conc. (nM) 2.49, 4 days) was 36.43% and 41.92% and 46.72% and the “% Growth” value ([3]; Log10 Conc. (nM) 3.10, 4 days) was 15.57% and 25.31% and 26.65%. For the same molecule, the “% Growth” value ([3]; Log10 Conc. (nM) -0.52, 4 days) was 94.29% and 106.05% and 120.50%, the “% Growth” value ([4]; Log10 Conc. (nM) 0.09) was 103.68% and 97.62% and the “% Growth” value ([4]; Log10 Conc. (nM) 0.69) was 77.76% and 65.52%. The “% Growth” value ([4]; Log10 Conc. (nM) 1.29) was 48.12% and 34.31%, the “% Growth” value ([4]; Log10 Conc. (nM) 3.10) was 4.14% and -5.07% and the “% Growth” value ([4]; Log10 Conc. (nM) 3.70) was -12.69% and -19.92%. For the same molecule, the “% Growth” value ([4]; Log10 Conc. (nM) 4.30) was -12.08% and -21.22%, the “% Growth” value ([4]; Log10 Conc. (nM) -0.52) was 92.16% and 87.19% and the “% Growth” value ([5]; Log10 Conc. (nM) 0.09) was 106.48% and 87.66%. The “% Growth” value ([5]; Log10 Conc. (nM) 0.69) was 87.77% and 86.95%, the “% Growth” value ([5]; Log10 Conc. (nM) 1.29) was 78.55% and 76.66% and the “% Growth” value ([5]; Log10 Conc. (nM) 1.89) was 68.25% and 64.95%. For the same molecule, the “% Growth” value ([5]; Log10 Conc. (nM) 2.49) was 52.79% and 47.15%, the “% Growth” value ([5]; Log10 Conc. (nM) 3.10) was 25.80% and 16.35% and the “% Growth” value ([5]; Log10 Conc. (nM) 3.70) was 4.77% and -4.61%. For the same molecule, the “% Growth” value ([5]; Log10 Conc. (nM) 4.30) was -8.16% and -14.41% and the “% Growth” value ([5]; Log10 Conc. (nM) -0.52) was 106.84% and 93.83%.
